The text below walks through data of patent US20260199493A1 (priority 2021, published 2026).

Series [1] concerns MBNL1 downstream genes (Atp2a1, Nfix, Clcn1, Mbnl1). Particulars: 1 week. An excerpt:
(§1) 9 week old HSA-LR mice and control FVB mice were employed in a 1 week post single dose range study. The HSA-LR mice were divided into 5 groups. […] Tissues were harvested after 7 days. RT-PCR was used to determine alternative splicing for specific genes (Atp2a1, Clcn1, Nfix, MBNL1). LC-mass was used to determine drug level in Quad, gastro, TA, Triceps, diaphragm, heart, kidney, liver, Brain, plasma. RNA-seq was used to determine the transcription level change between a treated disease model, an untreated disease model and wild-type. Fluorescence imaging was used to determine RNA Foci reduction after treatment with the EEV-oligo compound. […] Q-PCR was used to determine the reduction of mRNA level of actin-HSA after treatment.
(§2) RT-PCR was used to determine alternative splicing for specific genes (Atp2a1, Clcn1, Nfix, MBNL1). LC-mass was used to determine drug level in Quad, gastro, TA, Triceps, diaphragm, heart, kidney, liver, Brain, plasma. RNA-seq was used to determine the transcription level change between a treated disease model, an untreated disease model and wild-type. Fluorescence imaging was used to determine RNA Foci reduction after treatment with the EEV-oligo compound. Myotonia reduction was recorded 7 days after treatment with the EEV-oligo compound. Q-PCR was used to determine the reduction of mRNA level of actin-HSA after treatment.

Another series concerns HSA mRNA. The note with it: HSA-LR mice.
From the text: as §2, with “[…] The HSA-LR mice were divided into 5 groups. […] […] RT-PCR” for “RT-PCR”, “Myotonia reduction was recorded 7 days after treatment with the EEV-oligo compound.” left out
as §2

From the text in series [2]: as §1
For the next series, the system named is CUG foci. Particulars: HSA-LR mouse, 1 week.
From the text: as §1

Series [3] relates to DM1 patient-derived muscle cells. Particulars: 30 μM, 4 days of differentiation. The method, then: (§3) Patient myoblasts were treated with 30 micromolar of EEV-oligo throughout 4 days of differentiation. Splicing correction was assessed by one-step RT-PCR. HCR—FISH and sequestered MBNL1 protein detection assays were used to detect RNA foci.
(§4) Patient myoblasts harbor 2600 CTG repeats within the DMPK 3′UTR. […] Splicing correction was assessed by one-step RT-PCR and Labchip analysis. Plotted mean f SD; n=4 HCR—FISH assay for CUG foci detection in place.

The subject of the next series is nuclear foci (CUG foci). The note with it: DM1 patient-derived muscle cells, 30 μM, 4 days of differentiation. As to the method:
as §3, §4

The next series has as its system IRF-5 gene exon skipping. Particulars: RAW 264.7 cells, 5 μM. As to the method: Briefly, 150K cells/well were seeded in a 24 well plate in 0.5 ml DMEM. […] Following the second incubation, the RNA was harvested and RT-PCR was done using primers that detect exon 5 skipping in the IRF-5 gene.
In another series the test system is IRF5 protein. Particulars: for efficacy relative to EEV-PMO-IRF5-1 / IRF-5 protein expression compared to cells stimulated with R848 / IRF-5 protein reduction: RAW 264.7 cells; for efficacy relative to EEV-PMO-IRF5-1 / relative potency compared to EEV-PMO-IRF5-1 (IRF5 protein expression): R848 stimulation; for efficacy relative to EEV-PMO-IRF5-1: on average; for IRF-5 protein expression compared to cells stimulated with R848: all tested concentrations; for IRF-5 protein reduction: concentrations as low as 2 μM, vs cells stimulated with R848; for relative potency compared to EEV-PMO-IRF5-1 (IRF5 protein expression): mouse macrophage cells, Western Blot.

A further series concerns exon 23 of DMD. Particulars: MDX mice, single IV 20 mg/kg, day 5.
The test system of another series is GYS1. The note with it: GAA knockout mice, single IV dose, one-week post-injection.
The conditions of series [4]: in vivo.
From the text: as §1, §2

Series [5] relates to Human Primary Renal Proximal Tubular Epithelial Cells (RPTECs). The note with it: 24 hours.
Setting [6] is: HSA-LR mice, 15, 30, 60, 90 mpk IV.

Consider “Ac-PKKKRKV-AEEA-K(cyclo[FGFGRGRQ])-PEG12-OH [EEV-PMO-DM1-3]”, for which, in series [1] (setting [6]), the “correction of MBNL1 downstream genes, gastrocnemius” value is recorded as “dose dependent correction”; the “correction of MBNL1 downstream genes, quadriceps” value was “dose dependent correction”; the “correction of MBNL1 downstream genes, tibialis anterior” value is “dose dependent correction”; the “correction of MBNL1 downstream genes, triceps” value is “dose dependent correction”. The “mis-splicing in gastrocnemius, triceps, tibialis anterior and quadricep” value in series [1] (HSA-LR mice, 60 mpk oligo, 80 mpk whole drug) is on record as “fully correct mis-splicing”. The “HSA mRNA knockdown” value in the series with HSA mRNA (80 mpk IV, 1-week and 4-week post-injection) is given as “HSA mRNA knockdown trend”. In addition, the “HSA mRNA knockdown in skeletal muscles” value in the series with HSA mRNA (quadriceps, gastrocnemius, triceps, tibialis anterior, 1 week) is given as 50-70%. Besides, the myotonia result in series [2] (HSA-LR mice, 15, 30, 60 and 90 mpk, 7 days) was “dose dependent myotonia reduction”. The hindlimb myotonia result in series [2] (HSA-LR mice, single dose 90 mg/kg, 1 week) was “did not exhibit obvious signs of hindlimb myotonia after induction”. Moreover, the “CUG foci in TA muscle” value in the series with CUG foci is listed as “reduces CUG foci”. For the same substance, the biomarker splicing correction entry in series [3] was “significant biomarker splicing correction”. The nuclear foci result in the series with nuclear foci (CUG foci) is on record as “reduction in nuclear foci”.

For “Ac-PKKKRKV-AEEA-K(cyclo[FGFGRRRQ])-PEG12-OH [EEV-PMO-IRF5-3]”, in the series on IRF-5 gene exon skipping, the “exon skipping compared to EEV-PMO-IRF5-1” value was “higher exon skipping”. Also, in the series on IRF5 protein, the “efficacy relative to EEV-PMO-IRF5-1” value was determined as 5 fold, the “IRF-5 protein expression compared to cells stimulated with R848” value is listed as “significant reduction in IRF-5 protein expression”, the IRF-5 protein reduction result is reported as “about 80%” and the “relative potency compared to EEV-PMO-IRF5-1 (IRF5 protein expression)” value (“relative potency” below) is given as “significant improvement in relative potency”.

As to “Ac-PKKKRKV-AEEA-K(cyclo[FGFRRRRQ])-PEG12-OH [EEV-PMO-IRF5-4]”, the “exon skipping compared to EEV-PMO-IRF5-1” value with IRF-5 gene exon skipping is reported as “higher exon skipping”. Further, in the series with IRF5 protein, the “efficacy relative to EEV-PMO-IRF5-1” value was found to be 5 fold, the “IRF-5 protein expression compared to cells stimulated with R848” value is “significant reduction in IRF-5 protein expression”, the IRF-5 protein reduction result was “about 80%” and the “relative potency” value was “significant improvement in relative potency”.

Regarding “Ac-PKKKRKV-AEEA-K(cyclo[FfΦGrGrQ])-PEG12-OH [EEV-PMO-IRF5-2]”, the “exon skipping compared to EEV-PMO-IRF5-1” value with IRF-5 gene exon skipping was “higher exon skipping”. Also, in the series with IRF5 protein, the “efficacy relative to EEV-PMO-IRF5-1” value was determined as 5 fold, the “IRF-5 protein expression compared to cells stimulated with R848” value is listed as “significant reduction in IRF-5 protein expression”, the IRF-5 protein reduction entry was “about 80%” and the “relative potency” value was “significant improvement in relative potency”.

As to “Ac-PKKKRKV-AEEA-K(cyclo[GfFGrGrQ])-AEEA-K(N3)-NH2 [EEV-PMO-MDX-6]”, the “exon skipping in heart vs diaphragm, tibialis anterior, triceps” value with exon 23 of DMD is listed as “a lower level of exon skipping in heart tissue”.

Consider “Ac-PKKKRKV-PEG2-K(cyclo[Ff-Φ-Cit-r-Cit-rQ1)-PEG12-K(N3)-NH2 [EEV-PMO-GYS1-1]”, for which, in the series on GYS1, the “GYS1 expression in the diaphragm and cardiac muscle” value is recorded as “significant knockdown”.

As for “Ac-PKKKRKV-PEG2-K(cyclo[Ff-Φ-GrGrQ])-PEG2-K(N3)-NH2 [EEV-PMO-GYS1-2]”, in the series with GYS1, the “GYS1 expression in the diaphragm and cardiac muscle” value is recorded as “significant knockdown”.

For CAGCAGCAGCAGCAGCAGCAG [PMO-DM1], the “metabolite of EEV-PMO-DM1-3” value in series [4] was “major metabolite detected in vivo”. The “toxicity (viability): no toxicity at highest concentration tested” value in series [5] is above 817 µM.
